In this test the target is T1, ΔF508-CFTR (Homo sapiens, UniProt P13569, DEL508-508).
T1 construct: Primary lung epithelial cells homozygous for the Cystic Fibrosis-causing ΔF508 mutation were differentiated for a minimum of 4 weeks; endogenous in cells; host or cells: primary lung epithelial cells (hBE) homozygous for ΔF508, differentiated at an air-liquid interface
In words: hBE equivalent current (Ieq) assay: AUC of equivalent chloride current after forskolin/VX-770 in primary lung epithelial cells homozygous for ΔF508. The test is classed as cell-based. The note with it: relative to CFTR amplifier (Compound A)+VX-809 (3 uM), compound at 10 uM and Compound A at 3 uM, 24 h treatment. In short, it runs like this:
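ΔF508/ΔF508 primary human bronchial epithelia, differentiated ≥4 weeks at air-liquid interface, treated basolaterally with compound for 24 h at 37 °C. Transepithelial voltage and conductance by 24-channel current clamp at 36 °C: benzamil, then forskolin plus VX-770 for 27 min, then bumetanide; AUC of equivalent chloride current over vehicle.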

T1 sequence (P13569 with tags, fused parts or gaps DEL508-508): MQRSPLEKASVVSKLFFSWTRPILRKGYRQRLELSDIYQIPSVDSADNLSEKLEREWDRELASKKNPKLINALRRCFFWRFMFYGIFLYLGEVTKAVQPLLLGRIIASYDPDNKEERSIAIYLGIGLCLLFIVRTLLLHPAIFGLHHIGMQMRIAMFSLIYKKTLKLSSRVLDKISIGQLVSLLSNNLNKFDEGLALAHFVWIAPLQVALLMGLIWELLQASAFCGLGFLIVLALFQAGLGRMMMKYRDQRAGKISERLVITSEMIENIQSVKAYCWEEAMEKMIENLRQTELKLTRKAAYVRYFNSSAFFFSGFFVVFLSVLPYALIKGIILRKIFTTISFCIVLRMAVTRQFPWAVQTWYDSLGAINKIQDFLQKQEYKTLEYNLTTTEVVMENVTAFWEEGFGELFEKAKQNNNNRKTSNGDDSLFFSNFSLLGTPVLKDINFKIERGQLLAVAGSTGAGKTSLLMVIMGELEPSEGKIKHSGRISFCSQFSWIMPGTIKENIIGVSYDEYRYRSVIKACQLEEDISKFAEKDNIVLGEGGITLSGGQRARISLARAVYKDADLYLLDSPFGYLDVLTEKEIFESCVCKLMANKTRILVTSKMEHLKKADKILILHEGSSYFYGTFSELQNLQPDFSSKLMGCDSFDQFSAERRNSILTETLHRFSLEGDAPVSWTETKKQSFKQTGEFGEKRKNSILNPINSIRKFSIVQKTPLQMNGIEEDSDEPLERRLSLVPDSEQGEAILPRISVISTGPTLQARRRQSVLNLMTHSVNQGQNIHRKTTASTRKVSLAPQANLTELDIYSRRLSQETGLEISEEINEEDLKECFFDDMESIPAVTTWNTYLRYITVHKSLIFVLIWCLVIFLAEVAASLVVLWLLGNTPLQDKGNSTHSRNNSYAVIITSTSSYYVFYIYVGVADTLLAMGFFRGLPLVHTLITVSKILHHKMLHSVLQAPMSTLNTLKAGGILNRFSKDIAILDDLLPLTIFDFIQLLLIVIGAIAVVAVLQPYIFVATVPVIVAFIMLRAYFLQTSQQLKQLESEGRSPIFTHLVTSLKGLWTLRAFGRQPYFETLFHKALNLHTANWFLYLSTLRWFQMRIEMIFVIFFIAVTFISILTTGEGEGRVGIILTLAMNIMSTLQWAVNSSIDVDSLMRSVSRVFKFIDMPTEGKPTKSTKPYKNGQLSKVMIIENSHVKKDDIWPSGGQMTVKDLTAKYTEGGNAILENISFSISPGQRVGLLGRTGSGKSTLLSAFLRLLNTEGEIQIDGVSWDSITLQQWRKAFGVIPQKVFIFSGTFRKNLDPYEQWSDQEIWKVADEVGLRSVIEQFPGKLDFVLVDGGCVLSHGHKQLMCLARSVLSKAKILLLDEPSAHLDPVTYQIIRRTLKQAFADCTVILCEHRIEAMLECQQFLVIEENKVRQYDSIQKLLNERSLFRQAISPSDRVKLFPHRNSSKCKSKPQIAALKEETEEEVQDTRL

`Cc1c(-c2cc(C(=O)O)c3cc(Cl)cc(C)c3n2)oc2ccccc12` [Compound 17, 6-Chloro-8-methyl-2-(3-methylbenzofuran-2-yl)quinoline-4-carboxylic acid]: the Activity entry was “++ (activity>50% of CFTR amplifier+VX-809 (3 uM) with compound at 10 uM and Compound A at 3 uM)”.

Take `Cc1c(-c2cc(C(=O)[O-])c3c(OC[C@H]4CC[C@](C)(O)CC4)ccc(C)c3n2)oc2ccccc12.[Na+]` [Compound 377]: the Activity entry is “++ (activity>50% of CFTR amplifier+VX-809 (3 uM) with compound at 10 uM and Compound A at 3 uM)”.

As to `Cc1c(-c2cc(C(=O)O)c3c(OCc4ccccn4)ccc(C)c3n2)oc2ccccc12` [Compound 115, 8-Methyl-2-(3-methyl-1-benzofuran-2-yl)-5-(pyridin-2-ylmethoxy)quinoline-4-carboxylic acid], the Activity result was “+ (activity<50% of an CFTR amplifier (Compound A)+VX-809 (3 uM) with compound at 10 uM and Compound A at 3 uM)”.

As for `Cc1c(-c2cc(C(=O)[O-])c3c(OCc4cccc5c4OCO5)ccc(C)c3n2)sc2ccccc12.[Na+]` [Compound 296], the Activity entry is “++ (activity>50% of CFTR amplifier+VX-809 (3 uM) with compound at 10 uM and Compound A at 3 uM)”.

For the compound `Cc1c(-c2cc(C(=O)[O-])c3c(OCC4CCC5(CC4)COC5)ccc(C)c3n2)sc2ccccc12.[Na+]` [Compound 384], the Activity entry is “++ (activity>50% of CFTR amplifier+VX-809 (3 uM) with compound at 10 uM and Compound A at 3 uM)”.

With `Cc1c(-c2cc(C(=O)O)c3cc(C(C)(C)C)cc(C)c3n2)oc2ccccc12` [Compound 27, 6-tert-Butyl-8-methyl-2-(3-methyl-1-benzofuran-2-yl)quinoline-4-carboxylic acid], the Activity result is “++ (activity>50% of CFTR amplifier+VX-809 (3 uM) with compound at 10 uM and Compound A at 3 uM)”.

Take `Cc1c(-c2cc(C(=O)[O-])c3c(OC[C@H]4CC[C@@](C)(O)CC4)ccc(C)c3n2)sc2ccccc12.[Na+]` [Compound 322]: the Activity entry is “++ (activity>50% of CFTR amplifier+VX-809 (3 uM) with compound at 10 uM and Compound A at 3 uM)”.

As for `Cc1c(-c2cc(C(=O)[O-])c3c(OC4CCOCC4)ccc(C)c3n2)sc2ccccc12.[Na+]` [Compound 331], the Activity entry was “++ (activity>50% of CFTR amplifier+VX-809 (3 uM) with compound at 10 uM and Compound A at 3 uM)”.

For `CCc1ccc(OCc2ccc([S+](C)[O-])cc2)c2c(C(=O)O)cc(-c3oc4ccccc4c3C)nc12` (centres unmarked) [Compound 144, 8-Ethyl-5-[(4-methanesulfinylphenyl)methoxy]-2-(3-methyl-1-benzofuran-2-yl)quinoline-4-carboxylic acid], the Activity result is “++ (activity>50% of CFTR amplifier+VX-809 (3 uM) with compound at 10 uM and Compound A at 3 uM)”.

With `Cc1c(-c2cc(C(=O)[O-])c3c(OC4CC5(COC5)C4)ccc(C)c3n2)oc2ccccc12.[Na+]` [Compound 369], the Activity result is “++ (activity>50% of CFTR amplifier+VX-809 (3 uM) with compound at 10 uM and Compound A at 3 uM)”.

Take `Cc1c(-c2cc(C(=O)[O-])c3c(O[C@H](C)c4ccc(S(C)(=O)=O)cc4)ccc(C)c3n2)oc2ccccc12.[Na+]` [Compound 229, Sodium 5-[(1R)-1-(4-methanesulfonylphenyl)ethoxy]-8-methyl-2-(3-methyl-1-benzofuran-2-yl)quinoline-4-carboxylate]: the Activity entry was “++ (activity>50% of CFTR amplifier+VX-809 (3 uM) with compound at 10 uM and Compound A at 3 uM)”.

In the case of `COc1cc(C)c2nc(-c3cc4ccccc4o3)cc(C(=O)O)c2c1` [Compound 11, 2-(1-Benzofuran-2-yl)-6-methoxy-8-methylquinoline-4-carboxylic acid], the Activity entry is “+ (activity<50% of an CFTR amplifier (Compound A)+VX-809 (3 uM) with compound at 10 uM and Compound A at 3 uM)”.

For the compound `Cc1ccc(O[C@H](C)c2ccccc2)c2c(C(=O)[O-])cc(-c3nc4ccccn4c3C)nc12.[Na+]` [Compound 200], the Activity result is “+ (activity<50% of an CFTR amplifier (Compound A)+VX-809 (3 uM) with compound at 10 uM and Compound A at 3 uM)”.

In the case of `Cc1c(-c2cc(C(=O)[O-])c3c(OC[C@H]4CC[C@](C)(O)CC4)ccc(C)c3n2)sc2ccccc12.[Na+]` [Compound 323], the Activity result is “++ (activity>50% of CFTR amplifier+VX-809 (3 uM) with compound at 10 uM and Compound A at 3 uM)”.

Consider `Cc1c(-c2cc(C(=O)[O-])c3c(OCc4ccc(S(C)(=O)=O)cc4)ccc(C)c3n2)oc2ccccc12.[Na+]` [Compound 263], for which the Activity entry is “++ (activity>50% of CFTR amplifier+VX-809 (3 uM) with compound at 10 uM and Compound A at 3 uM)”.

For `CCc1ccc(OCc2ccccc2)c2c(C(=O)O)cc(-c3c(C)oc4ccccc34)nc12` [Compound 175], the Activity entry was “++ (activity>50% of CFTR amplifier+VX-809 (3 uM) with compound at 10 uM and Compound A at 3 uM)”.

For `CCc1ccc(OCc2ccccc2)c2c(C(=O)O)cc(-c3csc4ccccc34)nc12` [Compound 158, 2-(1-Benzothiophen-3-yl)-5-(benzyloxy)-8-ethylquinoline-4-carboxylic acid], the Activity entry is “++ (activity>50% of CFTR amplifier+VX-809 (3 uM) with compound at 10 uM and Compound A at 3 uM)”.

Consider `COC[C@@H](Oc1ccc(C)c2nc(-c3sc4ccccc4c3C)cc(C(=O)[O-])c12)c1ccccc1.[Na+]` [Compound 309], for which the Activity result is “++ (activity>50% of CFTR amplifier+VX-809 (3 uM) with compound at 10 uM and Compound A at 3 uM)”.

Regarding `Cc1c(-c2cc(C(=O)O)c3c(C)ccc(C)c3n2)oc2ccccc12` [Compound 31, 5,8-Dimethyl-2-(3-methyl-1-benzofuran-2-yl)quinoline-4-carboxylic acid], the Activity entry was “++ (activity>50% of CFTR amplifier+VX-809 (3 uM) with compound at 10 uM and Compound A at 3 uM)”.

As for `Cc1c(-c2cc(C(=O)[O-])c3c(OC4CC(C)(C)OC(C)(C)C4)ccc(C)c3n2)sc2ccccc12.[Na+]` [Compound 333], the Activity result is “++ (activity>50% of CFTR amplifier+VX-809 (3 uM) with compound at 10 uM and Compound A at 3 uM)”.

`CCc1ccc([S+]([O-])C2CCCCC2)c2c(C(=O)[O-])cc(-c3sc4ccccc4c3C)nc12.[Na+]` (centres unmarked) [Compound 140, Sodium 5-(Cyclohexanesulfinyl)-8-ethyl-2-(3-methyl-1-benzothiophen-2-yl)quinoline-4-carboxylate]: the Activity entry is “++ (activity>50% of CFTR amplifier+VX-809 (3 uM) with compound at 10 uM and Compound A at 3 uM)”.

For the compound `CCc1ccc(OCc2cccc(-c3cccnc3)c2)c2c(C(=O)O)cc(-c3csc4ccccc34)nc12` [Compound 194], the Activity entry is “+ (activity<50% of an CFTR amplifier (Compound A)+VX-809 (3 uM) with compound at 10 uM and Compound A at 3 uM)”.

In the case of `Cc1c(-c2cc(C(=O)O)c3c(OC(C)c4ccc(S(N)(=O)=O)cc4)ccc(C)c3n2)oc2ccccc12` (centres unmarked) [Compound 360], the Activity entry is “++ (activity>50% of CFTR amplifier+VX-809 (3 uM) with compound at 10 uM and Compound A at 3 uM)”.

With `Cc1c(-c2cc(C(=O)O)c3c(O[C@H](C)c4ccccc4)ccc(C)c3n2)sc2ccccc12` [Compound 137, 8-Methyl-2-(3-methyl-1-benzothiophen-2-yl)-5-[(1R)-1-phenylethoxy]quinoline-4-carboxylic Acid], the Activity entry is “++ (activity>50% of CFTR amplifier+VX-809 (3 uM) with compound at 10 uM and Compound A at 3 uM)”.

In the case of `Cc1c(-c2cc(C(=O)[O-])c3c(O[C@H](C)C4CCN(S(C)(=O)=O)CC4)ccc(C)c3n2)oc2ccccc12.[Na+]` [Compound 247, Sodium 5-[(1R)-1-(1-Methanesulfonylpiperidin-4-yl)ethoxy]-8-methyl-2-(3-methyl-1-benzofuran-2-yl)quinoline-4-carboxylate], the Activity entry is “++ (activity>50% of CFTR amplifier+VX-809 (3 uM) with compound at 10 uM and Compound A at 3 uM)”.

As to `Cc1cc2c(C(=O)O)cc(-c3oc4ccccc4c3C)nc2cc1OCc1ccccc1` [Compound 41, 7-(Benzyloxy)-6-methyl-2-(3-methyl-1-benzofuran-2-yl)quinoline-4-carboxylic acid], the Activity result was “+ (activity<50% of an CFTR amplifier (Compound A)+VX-809 (3 uM) with compound at 10 uM and Compound A at 3 uM)”.

As to `Cc1c(-c2cc(C(=O)[O-])c3c(O[C@H]4CCC[C@H](C)C4)ccc(C)c3n2)sc2ccccc12.[Na+]` [Compound 220, Sodium 8-Methyl-2-(3-methyl-1-benzothiophen-2-yl)-5-[[(1S,3S)-3-methylcyclohexyl]oxy]quinoline-4-carboxylate], the Activity result is “++ (activity>50% of CFTR amplifier+VX-809 (3 uM) with compound at 10 uM and Compound A at 3 uM)”.

As to `CO[C@]1(C)C[C@H](COc2ccc(C)c3nc(-c4sc5ccccc5c4C)cc(C(=O)[O-])c23)C1.[Na+]` [Compound 324], the Activity result was “++ (activity>50% of CFTR amplifier+VX-809 (3 uM) with compound at 10 uM and Compound A at 3 uM)”.

As for `CCc1ccc(O[C@H]2CCC[C@H](C)C2)c2c(C(=O)[O-])cc(-c3sc4ccccc4c3C)nc12.[Na+]` [Compound 216, Sodium 8-Ethyl-2-(3-methyl-1-benzothiophen-2-yl)-5-[[(1S,3S)-3-methylcyclohexyl]oxy]quinoline-4-carboxylate], the Activity entry was “++ (activity>50% of CFTR amplifier+VX-809 (3 uM) with compound at 10 uM and Compound A at 3 uM)”.

Turning to `Cc1ccc(C)c2c(C(=O)O)cc(-c3oc4cccc(C)c4c3C)nc12` [Compound 128, 2-(3,4-Dimethyl-1-benzofuran-2-yl)-5,8-dimethylquinoline-4-carboxylic acid], the Activity result was “+ (activity<50% of an CFTR amplifier (Compound A)+VX-809 (3 uM) with compound at 10 uM and Compound A at 3 uM)”.

Turning to `Cc1c(-c2cc(C(=O)[O-])c3c(O[C@H](C)c4ccc(C#N)cc4)ccc(C)c3n2)oc2ccccc12.[Na+]` [Compound 233], the Activity result is “++ (activity>50% of CFTR amplifier+VX-809 (3 uM) with compound at 10 uM and Compound A at 3 uM)”.

`CO[C@]1(C)CC[C@H](COc2ccc(C)c3nc(-c4oc5ccccc5c4C)cc(C(=O)[O-])c23)CC1.[Na+]` [Compound 387]: the Activity entry was “++ (activity>50% of CFTR amplifier+VX-809 (3 uM) with compound at 10 uM and Compound A at 3 uM)”.

The values are drawn from US11136313B2, “Compounds, compositions, and methods for modulating CFTR” (Proteostasis Therapeutics, Inc., priority 2015, dated 2021).
